Reference: patent US6593306B1, “Methods for modulation and inhibition of telomerase” (Board of Regents, The University of Texas Systems, priority 1995, dated 2003)
Entries after “also recorded” stand apart in the source; their conditions may differ.

Legend:
[1] = biological target: T1, human 293 cell telomerase (Homo sapiens, UniProt O14746); experiment: Conventional telomerase assay (32P-dGTP as radiolabel substrate); type: biochemical; conditions: for Inhibition of 293 Telomerase, Conventional Assay *dGTP: up to 2 mM
T1 construct: with 20 μl of S100 enzyme extract; endogenous in cells; host or cells: 293 cells (transformed human embryonic kidney), S100 extract
Procedure: Telomerase was prepared from transformed human embryonic kidney 293 cell line. Human embryonic kidney 293 cells were grown in Joklik's modified MEM niedium (Sigma, St Louis, Mo.) supplemented with 5% fetal bovine serum at 37° C. in a humidified atmosphere with 5% CO2. The cells were subcultured at 1-2×10^5 cells/ml twice a week. When the cells grew to approximately 1×10^6 cells/ml, the cells (˜2×10^9 cells) were centrifuged and transferred into polypropylene centrifuge (50 ml) tubes and kept on ice. The cells were then centrifuged in a (Beckman GS-6R) centrifuge at 1200 RPM for 10 minutes at 4° C., and resuspended in PBS. The washed cells were resuspended in 15 ml Hypobuffer Mix (10 mM HEPES, pH 8.0, 3 mM KCl, 1 mM MgCl2, 1 mM dithiothreitol, 1 μM leupeptin, 0.1 mM PMSF, 10 μM pepstatin, 0.83 μg/ml chymostatin, 0.83 μg/ml antipain, and 43.2 units/ml RNase Guard) and centrifuged. The cell pellets were resuspended in 0.75×volumes Hypobuffer [Hypobuffer Mix+40 units/ml RNase Guard (Pharmacia, N.J.) to allow the cells to swell. The cell suspensions were homogenized to allow the telomerase to “leak” into the cytosolic fraction. The lysate was then poured into new, autoclaved, 3 ml polyallomer ultracentrifuge tubes and centrifuged at 100,000×g for 1 hour at 4° C. A top lipid layer was carefully removed and discarded, and the supernatant was collected. 1/50 of the volume of 5 M NaCl was added to the clear supernatant fluid to achieve a final concentration of 0.1 M. Sterile glycerol was added until the final glycerol concentration was 20%. The enzyme solution was aliquoted into Eppendorf tubes and quickly frozen in liquid nitrogen and stored at −70° C.
The assay is based on the ability of the telomerase enzyme in the S100 fractions to recognize an 18-base DNA primer with the DNA sequence (TTAGGG)3. DNA polymerization initiates from the 3′-OH group of the oligonucleotide. By reading from its complementary internal RNA template, telomerase adds a repeated set of 5′-TTAGGG-3′ to the original 18-base primer. Non-synchronous “starts” and “terminations” among the different enzyme complexes result in a degenerative set of different length DNA primers occurring in 6-base increments. Incorporation of [α-^32P]dGTP at the guanine positions of the 5′-TTAGGG-3′ sequence allows the newly synthesized DNA fragments to be visualized by autoradiography. The resulting image forms the characteristic “ladder” structure that is used to identify telomerase activity. The images are scanned using a phosphoimager or laser densitometer (Molecular Dynamics, Sunnyvale, Calif.). Comparisons of the total volumes under the corresponding peaks are used to quantitate the total amount of [α-^32P] incorporated in the primer extension reaction.
The telomerase assay was initiated by mixing 20 μl of 2×reaction mix (100 mM Tris-OAc, pH 8.5, 100 mM KOAc, 10 mM β-mercaptoethanol, 2 mM spermidine, 2 mM MgCl2, 2 mM dATP, 2 mM dTTP, 2 μM oligo primer, potential inhibitors of interest at the appropriate concentration, and 50 μCi [α^32-P]dGTP) with 20 μl of S100 enzyme extract. The reaction mixture was then incubated at 30° C. for 1 hour. The reaction was stopped by incubating sequentially with 50 μl of the stop solution (10 mM Tris pH 7.5, 20 mM EDTA, 0.1 mg/ml RNase A) and 50 μl of deproteinase solution (10 mM Tris pH 7.5, 0.5% SDS, 0.3 mg/ml Proteinase K). The mixture was extracted with 50% phenol/50% chloroform (v/v). The DNA was then precipitated by adding 2.5×volumes of cold EtOH and letting it stand overnight at −70° C. The DNAs were separated on an 8% polyacrylamide/7M urea denaturing gel at 1600 V for 1.5 hours. The gel was dried and exposed to Kodak XAR-5 film to gel in −70° C. Typical autoradiographic exposures required 3-14 days.

human telomerase = biological target: T2, human telomerase (Homo sapiens, UniProt O14746); experiment: Cell-free telomerase inhibition, conventional or modified assay not stated; type: biochemical
T2 construct: telomerase in S100 extracts of transformed human fetal kidney tumor 293 cells (a processive telomerase); endogenous in cells; host or cells: human cells, (S100 extract)
Procedure: Selected nucleoside triphosphates were tested in one or both of the “conventional” or “modified” telomerase assays described in Methods using the human processive and the CHO non-processive telomerases. Initially, three chain-terminators were selected: 2′,3′-dideoxythymidine triphosphate (ddTTP), 3′-fluoro-2′,3′-dideoxythymidine triphosphate (F-ddTTP), and 3′-azido-2′-, 3′-dideoxythymidine triphosphate (AZ-ddTTP) as prototype agents to investigate whether they could inhibit telomerase activity. The three compounds are dTTP analogs without a 3′-OH group for subsequent chain elongation. They may either incorporate into the telomere sequence and terminate further chain elongation or compete directly with dTTP for the substrate binding site in the telomerase reaction. In either case, telomerase activity is inhibited.

[2] = test system: human colon carcinoma HT29 cells; experiment: Growth inhibition (MTT), HT29 cells; type: cell-based; conditions: HT-29, 144 h, 6 days
Procedure: (§1) Exponentially growing cells (1-2×10^3 cells, unless specified otherwise) in 0.1 ml medium were seeded on day 0 in a 96-well microtiter plate. On day 1, 0.1 ml aliquots of medium containing graded concentrations of test analogs were added in duplicate to the cell plates. After incubation at 37° C. in a humidified incubator for 6 days, the plates were centrifuged briefly and 100 μl of the growth medium was removed. Cell cultures were incubated with 50 μl of 3-(4,5-dimethylthiazol-2-yl)-2,5-diphenyl-tetrazolium bromide, (MTT) at a concentration of 1 mg/ml in Dulbecco's phosphate buffered saline (PBS)) for 4 hr at 37° C. The resulting purple formazan precipitate was solubilized with 200 μl of 0.04 N HCl in isopropyl alcohol. Absorbance was monitored in a BioRad Model 3550 Microplate Reader at a test wavelength of 570 nm and a reference wavelength of 630 nm. The absorbance was transferred to a PC 486 computer. The IC50 values were determined by a computer program (EZ-ED50) that fits all the data to the following four-parameter logistic equation: [formula]
(§2) where Amax is the absorbance of control cells, Amin is the absorbance of cells in the presence of highest agent concentration, Y is the observed absorbance, X is the agent concentration, IC50 is the concentration of agent that inhibits the cell growth by 50% of control cells (based on the absorbance) and n is the slope of the curve.
(§3) This is due to the extracellular dephosphorylation of the mono-, di-, or triphosphates by […] or 5′-nucleotidase back to the nucleoside. With this in mind, the inventors used only nucleosides rather than nucleoside triphosphates in these studies. Cultured tumor cells were incubated with selected nucleosides at graded concentrations for 6 days and the growth inhibition was determined by the standard MTT assay.

[3] = test system: transformed human embryonic kidney 293 cells; experiment: Growth inhibition (MTT), 293 cells; type: cell-based; conditions: HEK293, 144 h, 6 days
Procedure: as §1, §2, §3

T1 sequence (O14746 whole entry): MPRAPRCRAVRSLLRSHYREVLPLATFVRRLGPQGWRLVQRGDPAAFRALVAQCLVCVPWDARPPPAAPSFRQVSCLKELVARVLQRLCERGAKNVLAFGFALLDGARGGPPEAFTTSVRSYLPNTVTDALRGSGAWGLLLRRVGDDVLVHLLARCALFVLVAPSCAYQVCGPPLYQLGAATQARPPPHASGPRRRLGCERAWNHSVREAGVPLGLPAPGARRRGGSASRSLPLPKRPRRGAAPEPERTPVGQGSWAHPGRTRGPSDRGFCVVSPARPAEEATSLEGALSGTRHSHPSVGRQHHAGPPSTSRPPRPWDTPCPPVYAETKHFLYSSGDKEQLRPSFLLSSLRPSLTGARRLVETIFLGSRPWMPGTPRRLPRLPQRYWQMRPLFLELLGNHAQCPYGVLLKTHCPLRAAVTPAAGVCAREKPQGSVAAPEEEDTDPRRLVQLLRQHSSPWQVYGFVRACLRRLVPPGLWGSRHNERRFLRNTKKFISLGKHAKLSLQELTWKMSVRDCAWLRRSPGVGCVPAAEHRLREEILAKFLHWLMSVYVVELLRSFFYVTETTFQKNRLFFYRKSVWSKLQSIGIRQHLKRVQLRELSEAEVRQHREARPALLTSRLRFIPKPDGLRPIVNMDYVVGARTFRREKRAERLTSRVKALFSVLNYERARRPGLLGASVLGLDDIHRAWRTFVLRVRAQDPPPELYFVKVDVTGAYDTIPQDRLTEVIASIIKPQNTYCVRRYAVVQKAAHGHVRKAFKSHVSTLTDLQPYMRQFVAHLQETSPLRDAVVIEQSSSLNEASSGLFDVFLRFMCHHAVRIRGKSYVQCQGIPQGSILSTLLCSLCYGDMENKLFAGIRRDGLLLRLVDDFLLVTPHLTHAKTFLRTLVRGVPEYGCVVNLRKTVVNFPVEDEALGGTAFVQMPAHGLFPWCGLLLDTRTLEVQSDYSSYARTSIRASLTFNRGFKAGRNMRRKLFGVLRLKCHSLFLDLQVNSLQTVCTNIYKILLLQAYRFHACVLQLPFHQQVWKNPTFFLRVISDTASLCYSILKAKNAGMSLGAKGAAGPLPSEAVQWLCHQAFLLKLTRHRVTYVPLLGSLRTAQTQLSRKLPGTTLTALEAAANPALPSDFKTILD
T1 sequence (O60832 whole entry partner): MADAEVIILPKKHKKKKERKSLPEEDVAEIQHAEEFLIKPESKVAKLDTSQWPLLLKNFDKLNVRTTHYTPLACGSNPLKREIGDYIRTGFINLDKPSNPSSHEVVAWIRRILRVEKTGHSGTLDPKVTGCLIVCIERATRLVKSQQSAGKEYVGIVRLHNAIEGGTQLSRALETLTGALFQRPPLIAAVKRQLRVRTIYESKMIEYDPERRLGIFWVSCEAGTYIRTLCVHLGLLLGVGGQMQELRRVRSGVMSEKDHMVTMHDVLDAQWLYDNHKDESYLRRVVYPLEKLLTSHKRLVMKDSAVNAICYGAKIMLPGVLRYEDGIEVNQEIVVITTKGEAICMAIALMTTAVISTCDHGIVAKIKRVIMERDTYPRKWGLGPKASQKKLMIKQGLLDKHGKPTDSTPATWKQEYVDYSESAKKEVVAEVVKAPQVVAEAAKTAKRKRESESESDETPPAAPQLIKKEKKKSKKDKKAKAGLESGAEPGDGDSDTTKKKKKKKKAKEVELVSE
T1 sequence (Q9NPE3 whole entry partner): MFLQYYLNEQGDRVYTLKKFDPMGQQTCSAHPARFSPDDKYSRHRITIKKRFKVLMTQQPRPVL
T1 sequence (Q9NX24 whole entry partner): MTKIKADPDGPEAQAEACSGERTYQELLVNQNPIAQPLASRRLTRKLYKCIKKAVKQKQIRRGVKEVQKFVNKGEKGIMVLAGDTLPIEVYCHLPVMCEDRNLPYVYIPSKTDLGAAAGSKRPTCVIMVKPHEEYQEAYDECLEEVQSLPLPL
T1 sequence (Q9NY12 whole entry partner): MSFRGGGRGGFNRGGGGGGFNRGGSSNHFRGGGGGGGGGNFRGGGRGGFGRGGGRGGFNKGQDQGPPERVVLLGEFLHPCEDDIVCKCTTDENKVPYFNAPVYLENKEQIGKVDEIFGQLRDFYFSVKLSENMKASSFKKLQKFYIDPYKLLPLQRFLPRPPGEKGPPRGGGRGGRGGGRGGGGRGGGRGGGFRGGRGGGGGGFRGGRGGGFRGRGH
T2 sequence (O14746 whole entry): as the sequence (O14746 whole entry) above
T2 sequence (O60832 whole entry partner): as the sequence (O60832 whole entry partner) above
T2 sequence (Q9NPE3 whole entry partner): as the sequence (Q9NPE3 whole entry partner) above
T2 sequence (Q9NX24 whole entry partner): as the sequence (Q9NX24 whole entry partner) above
T2 sequence (Q9NY12 whole entry partner): as the sequence (Q9NY12 whole entry partner) above

| IC50 [2] [µM] | Compound | IC50 [3] [µM] | other results |
| --- | --- | --- | --- |
| – | 5-Allylamino-2′-Deoxyuridine-5′-Triphosphate [NA021] | – | % of Control ([1]; 0.125 mM): 51%; % of Control ([1]; 0.25 mM): 70%; % of Control ([1]; 0.5 mM): 43%; % of Control ([1]; 1.0 mM): 33%; % of Control ([1]; 2.0 mM): 30%; % of Control ([1]; 10 mM (so in the source)): 100%; IC50 ([1]; 293 cell telomerase): ~500 µM; Inhibition of 293 Telomerase, Conventional Assay *dGTP [1]: concentration dependent inhibition; also recorded: the telomerase activity is weak) |
| – | Cc1cn([C@H]2C[C@H](O)[C@@H](COP(=O)(O)OP(=O)(O)OP(=O)(O)O)O2)c(=O)[nH]c1=S [4-thiothymidine triphosphate] | – | inhibition of human telomerase activity (human telomerase; 1 mM): completely |
| 1.88 | Nc1ncnc2c1c(I)cn2[C@H]1C[C@H](O)[C@@H](CO)O1 [FS004, 7-Iodo-7-Deaza-2′-Deoxyadenosine] | 0.319 | – |
| 51.2 | N#Cc1cn([C@H]2C[C@H](O)[C@@H](CO)O2)c2ncnc(N)c12 [FS005, 7-Cyano-7-Deaza-2′-Deoxyadenosine] | 18.2 | – |
| 8.09 | Nc1ncnc2c1c(I)nn2[C@H]1C[C@H](O)[C@@H](CO)O1 [FS015, 7-Iodo-7-Deaza-8-Aza-2′-Deoxyadenosine] | 1.88 | – |
| 15.6 | Nc1ncnc2c1c(Cl)cn2[C@H]1C[C@H](O)[C@@H](CO)O1 [FS017, 7-Chloro-7-Deaza-2′-Deoxyadenosine] | 3.32 | – |
| 0.963 | Nc1ncnc2c1c(Br)cn2[C@H]1C[C@H](O)[C@@H](CO)O1 [FS018, 7-Bromo-7-Deaza-2′-Deoxyadenosine] | 1.14 | – |
| 109 | Nc1nc2c(c(Cl)cn2[C@H]2C[C@H](O)[C@@H](CO)O2)c(=O)[nH]1 [FS019, 7-Chloro-7-Deaza-2′-Deoxyguanosine] | 237 | – |
| 170 | Nc1nc2c(c(Br)cn2[C@H]2C[C@H](O)[C@@H](CO)O2)c(=O)[nH]1 [FS020, 7-Bromo-7-Deaza-2′-Deoxyguanosine] | 180 | – |
| 78.8 | Nc1nc2c(c(I)cn2[C@H]2C[C@H](O)[C@@H](CO)O2)c(=O)[nH]1 [FS021, 7-Iodo-7-Deaza-2′-Deoxyguanosine] | 63.4 | – |
| 196 | Cc1cn([C@H]2C[C@H](O)[C@@H](CO)O2)c2nc(N)[nH]c(=O)c12 [FS022, 7-Methyl-7-Deaza-2′-Deoxyguanosine] | 489 | – |
| 99.6 | Cc1cn([C@H]2C[C@H](O)[C@@H](CO)O2)c2ncnc(N)c12 [FS024, 7-Methyl-7-Deaza-2′-Deoxyadenosine] | 109 | – |
| – | Cc1cn([C@H]2CC[C@@H](COP(=O)(O)OP(=O)(O)OP(=O)(O)O)O2)c(=O)[nH]c1=O [NA001, 2′,3′-Dideoxythymidine-5′-Triphosphate] | – | IC50 ([1]; 293 cells telomerase, competing dTTP 1-2 mM, inhibitor 0 to 2 mM): ~500 µM |
| – | Nc1nc2c(ncn2[C@@H]2O[C@H](COP(=O)(O)OP(=O)(O)CP(=O)(O)O)[C@@H](O)[C@H]2O)c(=O)[nH]1 [NA011, Guanosine-5′-β,γ-Methylene Triphosphate] | – | % of Control ([1]; 0.125 mM): 82%; % of Control ([1]; 0.25 mM): 63%; % of Control ([1]; 0.5 mM): 86%; % of Control ([1]; 1.0 mM): 70%; % of Control ([1]; 2.0 mM): 65%; Inhibition of 293 Telomerase, Conventional Assay *dGTP [1]: inactive; also recorded: No Inhibition (up to 2 mM) |
| – | Nc1nc2c(ncn2[C@H]2C[C@H](O)[C@@H](COP(=O)(O)OP(=O)(O)CP(=O)(O)O)O2)c(=O)[nH]1 [NA014, 2′-Deoxyguanosine-5′-β,γ-Methylene Triphosphate] | – | remaining activity at 125 µM ([1]; 0.125 mM, read-out: % of Control): 60%; remaining activity at 250 µM ([1]; 0.25 mM, read-out: % of Control): 38%; remaining activity at 500 µM ([1]; 0.5 mM, read-out: % of Control): 42%; remaining activity at 1000 µM ([1]; 1.0 mM, read-out: % of Control): 40%; remaining activity at 2000 µM ([1]; 2.0 mM, read-out: % of Control): 28%; IC50 ([1]; 293 cell telomerase): < 125 µM; IC50 (human telomerase; Summary values, assay variant not stated, read-out: IC50): 102 µM |
| – | Nc1nc2c(ncn2[C@H]2C[C@H](O)[C@@H](COP(O)(O)=S)O2)c(=O)[nH]1 [NA015, 2′-Deoxyguanosine-5′-Phosphorothioate] | – | Inhibition of 293 Telomerase, Conventional Assay *dGTP [1]: No Inhibition (up to 2 mM) |
| 146 | Nc1ncnc2c1ccn2[C@H]1C[C@H](O)[C@@H](CO)O1 [NA024, 7-Deaza-2′-Deoxyadenosine] | 533 | – |
| 102 | Nc1nc2c(ccn2[C@H]2C[C@H](O)[C@@H](CO)O2)c(=O)[nH]1 [NA025, 7-Deaza-2′-Deoxyguanosine] | 130 | – |
| 310 | Cn1c(N)nc2c(ccn2[C@H]2C[C@H](O)[C@@H](CO)O2)c1=S [NA027, 1-Methyl-6-Thio-7-Deaza-2′-Deoxyguanosine] | 161 | – |
